The molecules below were run on RSV Long strain (assay: Viral cytopathic effect (CPE) assay, anti-RSV activity). Settings: RSV Long strain (ATCC); cell viability after 6 days, Cell Counting kit-8.
Type: cell-based, Respiratory Syncytial Virus
Method in brief: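 Cells (6×10^3/well, DMEM with 10% FBS) were infected next day with RSV Long strain, at a dose giving approximately 80–90% CPE, alongside serial half-log compound dilutions. Viability was read after 6 days by CCK-8 absorbance at 450 nm (reference 630 nm), and EC50 was derived from it.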

| EC50 [µM] | SMILES |
| --- | --- |
| 0.0003 | Cc1ccc2nc(N3CC[S+]([O-])c4ccccc4C3)nc(NCC3(CN)COC3)c2c1 (stereo not shown) [Example 62-1, N-{[3-(Aminomethyl)oxetan-3-yl]methyl}-6-methyl-2-(1-oxido-2,3-dihydro-1,4-benzothiazepin-4(5H)-yl)quinazolin-4-amine] |
| 0.019 | Cc1ccc2nc(N3CCS(=O)(=O)c4ccccc4C3)nc(NCCC(F)CN)c2c1 (stereo not shown) [Example 62-4, N^˜4^˜-[2-(1,1-Dioxido-2,3-dihydro-1,4-benzothiazepin-4(5H)-yl)-6-methylquinazolin-4-yl]-2-fluorobutane-1,4-diamine] |
| 0.017 | Cc1ccc2nc(N3CCS(=O)(=O)c4ccccc4C3)nc(NCC(F)CCN)c2c1 (stereo not shown) [Example 62-5, N^˜1^˜-[2-(1,1-Dioxido-2,3-dihydro-1,4-benzothiazepin-4(5H)-yl)-6-methylquinazolin-4-yl]-2-fluorobutane-1,4-diamine] |

Same assay, conditions: human respiratory syncytial virus, 144 h, RSV Long strain (ATCC); cell viability after 6 days, Cell Counting kit-8

| EC50 [µM] | SMILES |
| --- | --- |
| 4.8 | C#Cc1ccc2nc(N3CCS(=O)(=O)c4ccccc4C3)cc(NCCCN)c2c1 [Example 54, N-[2-(1,1-Dioxido-2,3-dihydro-1,4-benzothiazepin-4(5H)-yl)-6-ethynylquinolin-4-yl]propane-1,3-diamine] |
| 0.007 | Cc1ccc2nc(N3CC[S+]([O-])c4ccccc4C3)nc(NCC3(N)COC3)c2c1 (stereo not shown) [Example 55-1, N-[(3-Aminooxetan-3-yl)methyl]-6-methyl-2-(1-oxido-2,3-dihydro-1,4-benzothiazepin-4(5H)-yl)quinazolin-4-amine] |
| 0.002 | Cc1ccc2nc(N3CCS(=O)(=O)c4ccccc4C3)nc(NCC3(CN)COC3)c2c1 [Example 56-1, N-{[3-(Aminomethyl)oxetan-3-yl]methyl}-2-(1,1-dioxido-2,3-dihydro-1,4-benzothiazepin-4(5H)-yl)-6-methylquinazolin-4-amine] |
| 0.004 | NCC1(CNc2nc(N3CCS(=O)(=O)c4ccccc4C3)nc3ccc(Cl)cc23)COC1 [Example 56-3, N-{[3-(aminomethyl)oxetan-3-yl]methyl}-6-chloro-2-(1,1-dioxido-2,3-dihydro-1,4-benzothiazepin-4(5H)-yl)quinazolin-4-amine] |
| 0.018 | NC1(CNc2nc(N3CC[S+]([O-])c4ccccc4C3)nc3ccccc23)COC1 (stereo not shown) [Example 57-2, N-[(3-Aminooxetan-3-yl)methyl]-2-(1-oxido-2,3-dihydro-1,4-benzothiazepin-4(5H)-yl)quinazolin-4-amine] |
| 0.037 | NC1(CNc2nc(N3CCS(=O)(=O)c4ccccc4C3)nc3ccc(Cl)cc23)COC1 [Example 57-6, N-[(3-Aminooxetan-3-yl)methyl]-6-chloro-2-(1,1-dioxido-2,3-dihydro-1,4-benzothiazepin-4(5H)-yl)quinazolin-4-amine] |
| 0.081 | Cc1ccc2nc(N3CCS(=O)(=O)c4ccccc4C3)nc(NCCO)c2c1 [Example 57-7, 2-{[2-(1,1-Dioxido-2,3-dihydro-1,4-benzothiazepin-4(5H)-yl)-6-methylquinazolin-4-yl]amino}ethanol] |
| 0.018 | Cc1ccc2nc(N3CCS(=O)(=O)c4ccccc4C3)nc(NCC(C)(C)N)c2c1 [Example 60, N^˜1^˜-[2-(1,1-Dioxido-2,3-dihydro-1,4-benzothiazepin-4(5H)-yl)-6-methylquinazolin-4-yl]-2-methylpropane-1,2-diamine] |
| 0.005 | Cc1ccc2nc(N3CCS(=O)(=O)c4ccccc4C3)nc(NCC3(N)COC3)c2c1 [Example 61-1, N-[(3-Aminooxetan-3-yl)methyl]-2-(1,1-dioxido-2,3-dihydro-1,4-benzothiazepin-4(5H)-yl)-6-methylquinazolin-4-amine] |
| 0.006 | Cc1ccc2nc(N3CCSc4ccccc4C3)nc(NCC3(CN)COC3)c2c1 [Example 62-6, N-{[3-(Aminomethyl)oxetan-3-yl]methyl}-2-(2,3-dihydro-1,4-benzothiazepin-4(5H)-yl)-6-methylquinazolin-4-amine] |
| 3.13 | CC(=O)NCCNc1cc(N2CCS(=O)(=O)c3ccccc3C2)nc2ccc(C)cc12 [Example 63-1, N-(2-{[2-(1,1-Dioxido-2,3-dihydro-1,4-benzothiazepin-4(5H)-yl)-6-methylquinolin-4-yl]amino}ethyl)acetamide] |
| 2.02 | CC(=O)NCC1(CNc2cc(N3CCS(=O)(=O)c4ccccc4C3)nc3ccc(C)cc23)COC1 [Example 63-2, N-{[3-({[2-(1,1-D ioxido-2,3-dihydro-1,4-benzothiazepin-4(5H)-yl)-6-methylquinolin-4-yl]amino}methyl)oxetan-3-yl]methyl}acetamide] |
| 0.007 | CC(=O)NCCCNc1cc(N2CCS(=O)(=O)c3ccccc3C2)nc2ccc(C)cc12 [Example 63-3, N-(3-{[2-(1,1-Dioxido-2,3-dihydro-1,4-benzothiazepin-4(5H)-yl)-6-methylquinolin-4-yl]amino}propyl)acetamide] |
| 0.797 | CC(=O)Nc1nc(N2CCS(=O)(=O)c3ccccc3C2)nc2ccc(C)cc12 [Example 63-4, N-[2-(1,1-Dioxido-2,3-dihydro-1,4-benzothiazepin-4(5H)-yl)-6-methylquinazolin-4-yl]acetamide] |

Continued, molecule first:

| SMILES | EC50 [µM] |
| --- | --- |
| N#Cc1ccc2nc(N3CCS(=O)(=O)c4ccccc4C3)cc(NCCCN)c2c1 [Example 52, 4-[(3-Aminopropyl)amino]-2-(1,1-dioxido-2,3-dihydro-1,4-benzothiazepin-4(5H)-yl)quinoline-6-carbonitrile] | 0.419 |
| C=Cc1ccc2nc(N3CCS(=O)(=O)c4ccccc4C3)cc(NCCCN)c2c1 [Example 53, N-[2-(1,1-Dioxido-2,3-dihydro-1,4-benzothiazepin-4(5 H)-yl)-6-ethenylquinolin-4-yl]propane-1,3-diamine] | 0.094 |
| Cc1ccc2nc(N3CC[S+]([O-])c4ccccc4C3)nc(NCC3(NCc4ccccc4)COC3)c2c1 (stereo not shown) [Example 55-2, N-{[3-(Benzylamino)oxetan-3-yl]methyl}-6-methyl-2-(1-oxido-2,3-dihydro-1,4-benzothiazepin-4(5H)-yl)quinazolin-4-amine] | 0.202 |
| Cc1ccc2nc(N3CC[S+]([O-])c4ccccc4C3)nc(NCC(F)CN)c2c1 (stereo not shown) [Example 55-3, 2-Fluoro-N-[6-methyl-2-(1-oxido-2,3-dihydro-1,4-benzothiazepin-4(5H)-yl)quinazolin-4-yl]propane-1,3-diamine] | 0.006 |
| Cc1ccc2nc(N3CC[S+]([O-])c4ccccc4C3)nc(NCC(F)(F)CN)c2c1 (stereo not shown) [Example 56-2, 2,2-Difluoro-N-[6-methyl-2-(1-oxido-2,3-dihydro-1,4-benzothiazepin-4(5H)-yl)quinazolin-4-yl]propane-1,3-diamine] | 0.023 |
| Cc1ccc2nc(N3CCS(=O)(=O)c4ccccc4C3)nc(NCC(F)(F)CN)c2c1 [Example 56-4, N-[2-(1,1-Dioxido-2,3-dihydro-1,4-benzothiazepin-4(5H)-yl)-6-methylquinazolin-4-yl]-2,2-difluoropropane-1,3-diamine] | 0.027 |
| Cc1ccc2nc(N3CCS(=O)(=O)c4ccccc4C3)nc(NCC(F)CN)c2c1 (stereo not shown) [Example 56-5, N-[2-(1,1-Dioxido-2,3-dihydro-1,4-benzothiazepin-4(5H)-yl)-6-methylquinazolin-4-yl]-2-fluoropropane-1,3-diamine] | 0.022 |
| Cc1ccc2nc(N3CC[S+]([O-])c4ccccc4C3)nc(NCCCN)c2c1 (stereo not shown) [Example 56-6, N-[6-Methyl-2-(1-oxido-2,3-dihydro-1,4-benzothiazepin-4(5H)-yl)quinazolin-4-yl]propane-1,3-diamine] | 0.002 |
| NC1(CNc2nc(N3CCSc4ccccc4C3)nc3ccccc23)COC1 [Example 57-1, N-[(3-Aminooxetan-3-yl)methyl]-2-(2,3-dihydro-1,4-benzothiazepin-4(5H)-yl)quinazolin-4-amine] | 0.067 |
| NC1(CNc2nc(N3CCS(=O)(=O)c4ccccc4C3)nc3ccccc23)COC1 [Example 57-3, N-[(3-Aminooxetan-3-yl)methyl]-2-(1,1-dioxido-2,3-dihydro-1,4-benzothiazepin-4(5H)-yl)quinazolin-4-amine] | 0.023 |
| NC1(CNc2nc(N3CCSc4ccccc4C3)nc3ccc(Cl)cc23)COC1 [Example 57-4, N-[(3-Aminooxetan-3-yl)methyl]-6-chloro-2-(2,3-dihydro-1,4-benzothiazepin-4(5H)-yl)quinazolin-4-amine] | 0.239 |
| NC1(CNc2nc(N3CC[S+]([O-])c4ccccc4C3)nc3ccc(Cl)cc23)COC1 (stereo not shown) [Example 57-5, N-[(3-Aminooxetan-3-yl)methyl]-6-chloro-2-(1-oxido-2,3-dihydro-1,4-benzothiazepin-4(5H)-yl)quinazolin-4-amine] | 0.027 |
| Cc1ccc2nc(N3CCSc4ccccc4C3)nc(N)c2c1 [Example 58, 2-(2,3-Dihydro-1,4-benzothiazepin-4(5H)-yl)-6-methylquinazolin-4-amine] | 2.77 |
| Cc1ccc2nc(N3CCS(=O)(=O)c4ccccc4C3)nc(N)c2c1 [Example 59, 2-(1,1-Dioxido-2,3-dihydro-1,4-benzothiazepin-4(5H)-yl)-6-methylquinazolin-4-amine] | 0.746 |
| Cc1ccc2nc(N3CCS(=O)(=O)c4ccccc4C3)nc(NCC3(N)CCC3)c2c1 [Example 61-2, N-[(1-Aminocyclobutyl)methyl]-2-(1,1-dioxido-2,3-dihydro-1,4-benzothiazepin-4(5H)-yl)-6-methylquinazolin-4-amine] | 0.097 |
| Cc1ccc2nc(N3CCS(=O)(=O)c4ccccc4C3)cc(N3CCC(C)(N)C3)c2c1 (stereo not shown) [Example 64, 1-[2-(1,1-Dioxido-2,3-dihydro-1,4-benzothiazepin-4(5H)-yl)-6-methylquinolin-4-yl]-3-methylpyrrolidin-3-amine] | 0.035 |
| COc1cccc2c1S(=O)(=O)CCN(c1cc(NCC3(N)COC3)c3cc(C)ccc3n1)C2 [Example 65, N-[(3-Aminooxetan-3-yl)methyl]-2-(9-methoxy-1,1-dioxido-2,3-dihydro-1,4-benzothiazepin-4(5H)-yl)-6-methylquinolin-4-amine] | 0.322 |

Source: US8871756B2 (Hoffmann-La Roche Inc., priority 2011, dated 2014)
